Experiment [1] relates to HCT-116. The experiment in a line: Antiproliferative MTT assay, HCT-116. In kind it is cell-based. Conditions: Homo sapiens, HCT-116, read-out: Antiproliferative activity IC50 ± SEM, HCT-116.
For experiment [2], the system named is MCF-7. Put plainly: Antiproliferative MTT assay, MCF-7. In kind it is cell-based, human. To be noted: for IC50: Homo sapiens, MCF7, read-out: Antiproliferative activity IC50 ± SEM, MCF-7.
The subject of experiment [3] is PC-3. Put plainly: Antiproliferative MTT assay, PC-3. It counts as cell-based. Conditions: Homo sapiens, PC-3, read-out: Antiproliferative activity IC50 ± SEM, PC-3.
For experiment [4], the system named is four human cancer cell lines (HCT-116, PC-3, MCF-7, MDAMB-231). Put plainly: Antiproliferative MTT assay, average over four cancer cell lines. Conditions: for GI50: average IC50 of the four cancer cell lines; for fold less potent than compound 4n (GI50): ratio of GI50 values. It counts as cell-based.
In experiment [5] the target is EGFR-TK (Homo sapiens, UniProt P00533). Put plainly: EGFR inhibitory assay. It counts as biochemical. Conditions: for IC50: EGFR IC50 ± SEM.
Experiment [6] has as its target HER2-TK (Homo sapiens, UniProt P04626). The experiment in a line: HER2 inhibitory assay. It counts as biochemical.
Experiment [7] relates to MDAMB-231. Put plainly: Antiproliferative MTT assay, MDAMB-231. In kind it is cell-based, human. To be noted: for times more potent than sorafenib: MDAMB-231 breast cancer cell line.
Experiment [8] deals with BRAF^V600E. To be noted: read-out: BRAF^V600E IC50; cited from earlier work.
The subject of experiment [9] is MDA-MB 231 cancer cells. The experiment in a line: Cell cycle analysis. It counts as cell-based, human.
Experiment [10] has as its system MDA-MB 231 cells. Put plainly: Apoptosis induction analysis. In kind it is cell-based, human.

“And” between values parts separate entries of the source, which are not always exact repeats. Equal values may be shown once.

Sequence of EGFR-TK (P00533 669-1210): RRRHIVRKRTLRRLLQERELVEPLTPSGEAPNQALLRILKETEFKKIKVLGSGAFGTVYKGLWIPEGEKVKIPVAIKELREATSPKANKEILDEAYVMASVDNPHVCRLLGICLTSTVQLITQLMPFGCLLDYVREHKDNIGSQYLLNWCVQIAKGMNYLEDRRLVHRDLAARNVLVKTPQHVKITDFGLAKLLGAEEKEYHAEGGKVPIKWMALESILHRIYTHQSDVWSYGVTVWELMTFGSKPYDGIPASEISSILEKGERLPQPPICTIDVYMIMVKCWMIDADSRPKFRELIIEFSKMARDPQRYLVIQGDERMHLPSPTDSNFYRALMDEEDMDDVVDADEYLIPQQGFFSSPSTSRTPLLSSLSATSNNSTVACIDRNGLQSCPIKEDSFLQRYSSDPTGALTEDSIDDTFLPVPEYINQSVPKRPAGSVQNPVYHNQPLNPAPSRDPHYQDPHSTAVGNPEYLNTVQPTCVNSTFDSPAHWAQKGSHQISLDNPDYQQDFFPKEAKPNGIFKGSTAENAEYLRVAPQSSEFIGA
Sequence of HER2-TK (P04626 676-1255 limits assumed): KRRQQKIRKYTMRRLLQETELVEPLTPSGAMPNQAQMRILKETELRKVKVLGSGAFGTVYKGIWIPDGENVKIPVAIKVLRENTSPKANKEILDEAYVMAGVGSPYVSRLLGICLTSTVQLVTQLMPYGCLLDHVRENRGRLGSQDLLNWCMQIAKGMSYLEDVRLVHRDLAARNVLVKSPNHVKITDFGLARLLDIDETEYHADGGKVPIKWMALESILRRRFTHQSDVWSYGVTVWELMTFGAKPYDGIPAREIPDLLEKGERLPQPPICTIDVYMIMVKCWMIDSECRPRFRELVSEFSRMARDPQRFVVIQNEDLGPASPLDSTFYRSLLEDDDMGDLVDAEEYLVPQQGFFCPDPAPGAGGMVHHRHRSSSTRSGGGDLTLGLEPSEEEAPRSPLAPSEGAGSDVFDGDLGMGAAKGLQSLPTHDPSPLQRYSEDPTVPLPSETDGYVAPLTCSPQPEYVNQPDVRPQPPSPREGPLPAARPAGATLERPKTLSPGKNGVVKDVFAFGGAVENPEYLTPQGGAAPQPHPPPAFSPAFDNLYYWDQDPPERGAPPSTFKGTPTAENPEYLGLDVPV

Take `COc1ccc(N2CCN(CC(=O)Nc3ccc(C4=NN(C(C)=O)C(c5ccc(C)cc5)C4)cc3)CC2)cc1` (stereo not shown) [5b, N-(4-(1-Acetyl-5-(p-tolyl)-4,5-dihydro-1H-pyrazol-3-yl)phenyl)-2-(4-(4-methoxy-phenyl)piperazin-1-yl)acetamide]: the half-inhibitory concentration (IC50) is 24.9 ± 1.8 µM in experiment [1], 13.8 ± 1.1 µM in experiment [2] and 21.9 ± 1.6 µM in experiment [3]. In addition, the GI50 in experiment [4] (Homo sapiens) stood at 18 µM.

On to `O=C(CN1CCN(c2ccc(Cl)cc2)CC1)Nc1ccc(C(=O)C=Cc2ccco2)cc1` [4n, 2-(4-(4-Chlorophenyl)piperazin-1-yl)-N-(4-(3-(furan-2-yl)acryloyl)phenyl)acetamide], for which the IC50 was 8.67 ± 0.9 µM in experiment [1]; 799 nM and 1780 nM in experiment [5]; 505 nM in [6] (HER2 IC50 ± SEM, Table 3); 6.94 ± 0.4 µM in experiment [2]; 9.08 ± 0.8 µM in experiment [3]. In experiment [5], the “times less effective as EGFR inhibitors than erlotinib” value was “at least 10 times”. For the same compound, the “times more potent than sorafenib” value in [7] was 1.6 times. The same compound registered a GI50 in experiment [4] (Homo sapiens) of 7 µM.

As for `COc1ccc(C2CC(c3ccc(NC(=O)CN4CCN(c5ccc(Cl)cc5)CC4)cc3)=NN2C(C)=O)cc1` (stereo not shown) [5j, N-(4-(1-Acetyl-5-(4-methoxyphenyl)-4,5-dihydro-1H-pyrazol-3-yl)phenyl)-2-(4-(4-chlorophenyl)piperazin-1-yl)acetamide], the figures for the half-inhibitory concentration (IC50) in [1], in [2] and in experiment [3] were over 100 µM, 94 ± 4.9 µM and over 100 µM, respectively. In [4] (Homo sapiens), this compound registered a GI50 of 100 µM.

Turning to `C#Cc1cccc(Nc2ncnc3cc(OCCOC)c(OCCOC)cc23)c1` [Erlotinib], the IC50 in [8] is […].

For `COc1ccc(N2CCN(CC(=O)Nc3ccc(C4=NN(C(C)=O)C(c5ccco5)C4)cc3)CC2)cc1` (stereo not shown) [5g, N-(4-(1-Acetyl-5-(furan-2-yl)-4,5-dihydro-1H-pyrazol-3-yl)phenyl)-2-(4-(4-methoxy-phenyl)piperazin-1-yl)acetamide], the IC50 in experiment [1] is 8.06 ± 0.7 µM; in [5] it was 2380 nM; in experiment [6] (HER2 IC50 ± SEM, Table 3), 1540 nM; in experiment [2] it was 3.78 ± 0.2 µM; in [3], 7.48 ± 0.6 µM. The “times less effective as EGFR inhibitors than erlotinib” value in [5] was “at least 10 times”. In addition, it took 6 µM to inhibit growth in [4] (Homo sapiens) by half (GI50).

Regarding `CNC(=O)c1cc(Oc2ccc(NC(=O)Nc3ccc(Cl)c(C(F)(F)F)c3)cc2)ccn1` [Sorafenib, reference compound], the concentration for half-maximal inhibition (IC50) in [3] was 11.5 ± 0.9 µM. Further, the concentration for 50% growth inhibition (GI50) was 8 µM in experiment [4] (Homo sapiens) and 7 µM in experiment [4].

For `COc1cccc2c1C(=O)c1c(O)c3c(c(O)c1C2=O)C[C@@](O)(C(=O)CO)C[C@@H]3O[C@H]1C[C@H](N)[C@H](O)[C@H](C)O1` [Doxorubicin, reference compound], halving of growth in [4] (Homo sapiens) (GI50) required 5 µM.

As to `COc1ccc(C2CC(c3ccc(NC(=O)CN4CCN(c5ccc(OC)cc5)CC4)cc3)=NN2C(C)=O)cc1` (stereo not shown) [5c, N-(4-(1-Acetyl-5-(4-methoxyphenyl)-4,5-dihydro-1H-pyrazol-3-yl)phenyl)-2-(4-(4-methoxyphenyl)piperazin-1-yl)acetamide], the concentration for half-maximal inhibition (IC50) turned out to be 18.6 ± 1.5 µM in experiment [1], 9.68 ± 0.8 µM in [2] and 16.2 ± 1.3 µM in experiment [3]. The concentration for 50% growth inhibition (GI50) in experiment [4] (Homo sapiens) was 13 µM.

For `COc1ccc(N2CCN(CC(=O)Nc3ccc(C(=O)C=Cc4cc(OC)c(OC)c(OC)c4)cc3)CC2)cc1` [4d, 2-(4-(4-Methoxyphenyl)piperazin-1-yl)-N-(4-(3-(3,4,5-trimethoxyphenyl)acryloyl)phenyl)acetamide], the figures for the half-inhibitory concentration (IC50) in experiment [1], in [2] and in experiment [3] were 29.1 ± 1.9 µM, 24.2 ± 1.7 µM and 61.4 ± 3.5 µM, respectively.

With `CC(=O)N1N=C(c2ccc(NC(=O)CN3CCN(c4ccc(Cl)cc4)CC3)cc2)CC1c1ccco1` (stereo not shown) [5n, N-(4-(1-Acetyl-5-(furan-2-yl)-4,5-dihydro-1H-pyrazol-3-yl)phenyl)-2-(4-(4-chlorophenyl)piperazin-1-yl)acetamide], the figures for the IC50 in [1], in [2] and in [3] were 39.6 ± 2.3 µM, 23.9 ± 1.7 µM and 36.8 ± 2.2 µM, respectively.

On to `COc1ccc(N2CCN(CC(=O)Nc3ccc(C4=NN(C(C)=O)C(c5ccccc5)C4)cc3)CC2)cc1` (stereo not shown) [5a, N-(4-(1-Acetyl-5-phenyl-4,5-dihydro-1H-pyrazol-3-yl)phenyl)-2-(4-(4-methoxyphenyl)piperazin-1-yl)acetamide], for which the IC50 stood at 32.1 ± 2.1 µM in experiment [1], 19.6 ± 1.4 µM in experiment [2] and 46.3 ± 2.5 µM in experiment [3].

On to `COc1ccc(N2CCN(CC(=O)Nc3ccc(C4=NN(C(C)=O)C(c5cc(OC)c(OC)c(OC)c5)C4)cc3)CC2)cc1` (stereo not shown) [5d, N-(4-(1-Acetyl-5-(3,4,5-trimethoxyphenyl)-4,5-dihydro-1H-pyrazol-3-yl)phenyl)-2-(4-(4-methoxyphenyl)piperazin-1-yl)acetamide], for which, in [1], the IC50 worked out at 6.47 ± 0.4 µM. Moreover, in experiment [5], half-maximal inhibition (IC50) required 209 nM. Further, the half-maximal inhibitory concentration (IC50) in [6] (HER2 IC50, as printed in text) was 61 nM. Also, in experiment [6] (HER2 IC50 ± SEM, Table 3), 101 nM corresponded to half-maximal inhibition (IC50). In addition, in experiment [7], the “times more potent than sorafenib” value worked out at 2.7 times. Moreover, in [9] (MDA-MB 231, 24 h, 25 μM), the “Cell cycle analysis, Comment” value was “Cell cycle arrest @ G1”; the “DNA content % G0–G1” value was found to be 78.53%; the “DNA content % G2/M” value was 3.36%; the “DNA content % S” value is 18.11%. Further, the “percentage of pre-G1 apoptosis” value in experiment [9] (MDA-MB 231, 24 h incubation) worked out at 78.53%. Also, the “early apoptosis enhanced more than late apoptosis, fold” value in experiment [10] (MDA-MB 231) is 5 fold. In experiment [10] (MDA-MB cancer cells, 24 h), the “Apoptosis Early” value worked out at 17.13, the “Apoptosis Late” value came out at 8.89, the “Apoptosis Total” value was 29.59 and the Necrosis stood at 3.57. Besides, in experiment [2], the half-maximal inhibitory concentration (IC50) came to 5.05 ± 0.4 µM. Besides, in experiment [3], the half-inhibitory concentration (IC50) amounted to 13 ± 1 µM. Further, growth in experiment [4] (Homo sapiens) was halved (GI50) at 7 µM.

With `Cc1ccc(C=CC(=O)c2ccc(NC(=O)CN3CCN(c4ccc(Cl)cc4)CC3)cc2)cc1` [4i, 2-(4-(4-Chlorophenyl)piperazin-1-yl)-N-(4-(3-(p-tolyl)acryloyl)phenyl)acetamide], the half-inhibitory concentration (IC50) was 86.1 ± 4.3 µM in [1], 91.6 ± 4.6 µM in experiment [2] and over 100 µM in experiment [3]. Further, in experiment [4] (Homo sapiens), the 50% growth inhibitory concentration (GI50) turned out to be 90 µM. Moreover, in experiment [4], the “fold less potent than compound 4n (GI50)” value is on record as 13.

For the compound `CC(=O)N1N=C(c2ccc(NC(=O)CN3CCN(c4ccc(Cl)cc4)CC3)cc2)CC1c1ccc(C)cc1` (stereo not shown) [5i, N-(4-(1-Acetyl-5-(p-tolyl)-4,5-dihydro-1H-pyrazol-3-yl)phenyl)-2-(4-(4-chloro-phenyl)piperazin-1-yl)acetamide], the values for the IC50 in [1], in experiment [2] and in experiment [3] were 62.5 ± 3.4 µM, 54.7 ± 3.1 µM and 67.8 ± 3.6 µM, respectively.

As to `COc1ccc(N2CCN(CC(=O)Nc3ccc(C(=O)C=Cc4ccco4)cc3)CC2)cc1` [4g, N-(4-(3-(Furan-2-yl)acryloyl)phenyl)-2-(4-(4-methoxyphenyl)piperazin-1-yl)acetamide], the IC50 in [1] was 17.3 ± 1.4 µM; in experiment [2], 9.37 ± 0.7 µM; in experiment [3] it was 14.2 ± 1.2 µM. Further, the “fold less potent than 4n, MDAMB-231” value in experiment [7] came out at 2 fold. In addition, the “fold less potent than 4n, MCF-7” value in [2] came out at 2 fold. Besides, it took 12 µM to inhibit growth in experiment [4] (Homo sapiens) by half (GI50). Besides, in experiment [4], the “fold less potent than compound 4n (GI50)” value was found to be 1.7.

For the compound `COc1ccc(N2CCN(CC(=O)Nc3ccc(C(=O)C=Cc4ccc(C)cc4)cc3)CC2)cc1` [4b, 2-(4-(4-Methoxyphenyl)piperazin-1-yl)-N-(4-(3-(p-tolyl)acryloyl)phenyl)acetamide], the IC50 in [1] was found to be 79.6 ± 3.8 µM; in [2] it was 65.5 ± 3.5 µM; in [3], 32 ± 2.1 µM.

`COc1cc(C2CC(c3ccc(NC(=O)CN4CCN(c5ccc(Cl)cc5)CC4)cc3)=NN2C(C)=O)cc(OC)c1OC` (stereo not shown) [5k, N-(4-(1-Acetyl-5-(3,4,5-trimethoxyphenyl)-4,5-dihydro-1H-pyrazol-3-yl)phenyl)-2-(4-(4-chlorophenyl)piperazin-1-yl)acetamide]: the half-maximal inhibitory concentration (IC50) is 52.8 ± 3 µM in experiment [1], 40.8 ± 2.4 µM in experiment [2] and 45.7 ± 2.6 µM in [3].

As for `O=C(CN1CCN(c2ccc(Cl)cc2)CC1)Nc1ccc(C(=O)C=Cc2ccc(Br)cc2)cc1` [4l, N-(4-(3-(4-Bromophenyl)acryloyl)phenyl)-2-(4-(4-chlorophenyl)piperazin-1-yl)acetamide], the concentration for half-maximal inhibition (IC50) in experiment [1] amounted to 75.4 ± 4.1 µM; in experiment [2], 80.8 ± 3.9 µM; in experiment [3] it was 86.4 ± 4.3 µM. Growth in experiment [4] (Homo sapiens) was halved (GI50) at 76 µM. Besides, the “fold less potent than compound 4n (GI50)” value in [4] turned out to be 11.

As to `CC(=O)N1N=C(c2ccc(NC(=O)CN3CCN(c4ccc(Cl)cc4)CC3)cc2)CC1c1ccc(Cl)cc1Cl` (stereo not shown) [5m, N-(4-(1-Acetyl-5-(2,4-dichlorophenyl)-4,5-dihydro-1H-pyrazol-3-yl)phenyl)-2-(4-(4-chlorophenyl)piperazin-1-yl)acetamide], the IC50 in experiment [1] turned out to be 69.9 ± 3.7 µM; in experiment [2], 71.3 ± 3.6 µM; in [3] it was 76.7 ± 3.9 µM.

The values are drawn from publication PMC11951252 (RSC Advances, 2025).
